Values quoted from earlier work, collected in patent publication US6537758B2, “Method for isolating nucleic acid from micronuclei separated from a cell” (The Salk Institute for Biological Studies, priority 1995, dated 2003).

What was measured:
[1] = tested on: mouse cells with unstably amplified dihydrofolate reductase (DHFR) genes
[2] = tested on: HL60 cells; details: low concentrations of HU
[3] = tested on: cells containing DMs

NC(=O)NO [hydroxyurea]
rate of loss of unstably amplified DHFR genes [1]: increase the rate of loss
c-myc expression [2]: decreased c-myc expression
differentiation [2]: induction of differentiation
number of c-myc-containing DMs [2]: reduced the number of c-myc-containing DMs
elimination of genes amplified on DMs ([3]; HU at concentrations that do not inhibit DNA synthesis or ribonucleotide reductase): eliminated
micronuclei formation ([3]; HU-treatment of cells containing DMs): increase in micronuclei formation
